The source of these data is patent publication US10428044B2, “3-amino-1,5,6,7-tetrahydro-4H-indol-4-ones” (Bayer Pharma Aktiengesellschaft, priority 2014, dated 2019).

pIC50: −log10 of the molar value.

Sequence of (recombinant) catalytic domain of human Bub1 (amino acids 704-1085) (O43683 704-1085): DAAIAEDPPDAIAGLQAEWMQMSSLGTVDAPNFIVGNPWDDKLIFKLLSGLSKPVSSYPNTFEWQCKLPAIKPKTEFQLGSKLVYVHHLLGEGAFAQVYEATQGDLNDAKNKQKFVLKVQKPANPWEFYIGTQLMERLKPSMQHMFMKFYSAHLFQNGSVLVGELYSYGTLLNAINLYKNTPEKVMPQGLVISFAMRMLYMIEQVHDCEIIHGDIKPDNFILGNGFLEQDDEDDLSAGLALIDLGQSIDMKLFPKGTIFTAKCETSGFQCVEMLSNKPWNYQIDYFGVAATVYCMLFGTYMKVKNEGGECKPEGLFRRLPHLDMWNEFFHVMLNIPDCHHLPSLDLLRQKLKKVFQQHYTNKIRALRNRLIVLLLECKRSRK

In this assay the target is (recombinant) catalytic domain of human Bub1 (amino acids 704-1085) (Homo sapiens (Human), UniProt O43683). Briefly: Bub1 kinase assay (TR-FRET). Format: biochemical. Particulars: ATP 10 μM final, peptide substrate 1 μM final, 60 min at 22° C., read-out: Biological Assay: Bub1 kinase assay median IC50. The procedure, abridged:
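Readout was TR-FRET between a Eu-labeled antibody complex recognizing phosphoserine and streptavidin-XL665 on the biotinylated peptide, after EDTA stop and 1 h at 22° C. The kinase reaction ran for 60 min at 22° C. Values are means or medians of repeat tests, from 4-parameter fits normalized to enzyme-free and inhibitor-free controls.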
`O=C(Nc1cc(-c2[nH]c3c(c2Nc2ccccc2)C(=O)CCC3)ccn1)c1ccccc1F` [Example 264, 2-fluoro-N-{4-[4-oxo-3-(phenylamino)-4,5,6,7-tetrahydro-1H-indol-2-yl]pyridin-2-yl}benzamide]: the pIC50 is 7.86.
Regarding `O=C(Nc1cc(-c2[nH]c3c(c2Nc2ccccc2)C(=O)CCC3)ccn1)c1cccc(F)c1` [Example 265, 3-fluoro-N-{4-[4-oxo-3-(phenylamino)-4,5,6,7-tetrahydro-1H-indol-2-yl]pyridin-2-yl}benzamide], the negative logarithm of the IC50 (pIC50) is 7.72.
With `O=C(Nc1cc(-c2[nH]c3c(c2Nc2ccccc2)C(=O)CCC3)ccn1)c1ccc(F)cc1` [Example 266, 4-fluoro-N-{4-[4-oxo-3-(phenylamino)-4,5,6,7-tetrahydro-1H-indol-2-yl]pyridin-2-yl}benzamide], the pIC50 is 7.86.
On to `CC1(C)CC(=O)c2c([nH]c(-c3ccnc(NC(=O)c4ccc(F)cc4)c3)c2Nc2ccccc2)C1` [Example 267, N-{4-[6,6-dimethyl-4-oxo-3-(phenylamino)-4,5,6,7-tetrahydro-1H-indol-2-yl]pyridin-2-yl}-4-fluorobenzamide], for which the pIC50 is 8.02.
In the case of `O=C(Nc1cc(-c2[nH]c3c(c2Nc2ccccc2)C(=O)CCC3)ccn1)c1ccncc1` [Example 268, N-{4-[4-oxo-3-(phenylamino)-4,5,6,7-tetrahydro-1H-indol-2-yl]pyridin-2-yl}pyridine-4-carboxamide], the pIC50 is 7.64.
The same measure for `O=C(Nc1cc(-c2[nH]c3c(c2Nc2ccccc2)C(=O)CCC3)ccn1)c1ccccn1` [Example 269, N-{4-[4-oxo-3-(phenylamino)-4,5,6,7-tetrahydro-1H-indol-2-yl]pyridin-2-yl}pyridine-2-carboxamide]: 7.53; for `O=C(Nc1cc(-c2[nH]c3c(c2Nc2ccccc2)C(=O)CCC3)ccn1)c1nccs1` [Example 270, N-{4-[4-oxo-3-(phenylamino)-4,5,6,7-tetrahydro-1H-indol-2-yl]pyridin-2-yl}-1,3-thiazole-2-carboxamide]: 7.53; for `O=C(Nc1cc(-c2[nH]c3c(c2Nc2ccccc2)C(=O)CCC3)ccn1)c1cscn1` [Example 271, N-{4-[4-oxo-3-(phenylamino)-4,5,6,7-tetrahydro-1H-indol-2-yl]pyridin-2-yl}-1,3-thiazole-4-carboxamide]: 8.12.
Consider `CC1(C)CC(=O)c2c([nH]c(-c3ccnc(NC(=O)c4cscn4)c3)c2Nc2ccccc2)C1` [Example 272, N-{4-[6,6-dimethyl-4-oxo-3-(phenylamino)-4,5,6,7-tetrahydro-1H-indol-2-yl]pyridin-2-yl}-1,3-thiazole-4-carboxamide], for which the pIC50 is 8.18.
Take `O=C(Nc1cc(-c2[nH]c3c(c2Nc2ccccc2)C(=O)CCC3)ccn1)c1cncs1` [Example 273, N-{4-[4-oxo-3-(phenylamino)-4,5,6,7-tetrahydro-1H-indol-2-yl]pyridin-2-yl}-1,3-thiazole-5-carboxamide]: the pIC50 was 8.12.
For `O=C(Nc1cc(-c2[nH]c3c(c2Nc2ccccc2)C(=O)CCC3)ccn1)c1ncc[nH]1` [Example 274, N-{4-[4-oxo-3-(phenylamino)-4,5,6,7-tetrahydro-1H-indol-2-yl]pyridin-2-yl}-1H-imidazole-2-carboxamide], the pIC50 was 7.32.
Take `O=C(Nc1cc(-c2[nH]c3c(c2Nc2ccccc2)C(=O)CCC3)ccn1)c1ccn[nH]1` [Example 275, N-{4-[4-oxo-3-(phenylamino)-4,5,6,7-tetrahydro-1H-indol-2-yl]pyridin-2-yl}-1H-pyrazole-5-carboxamide]: the pIC50 was 7.90.
Next, `O=C(Nc1cc(-c2[nH]c3c(c2Nc2ccccc2)C(=O)CCC3)ccn1)c1ccsn1` [Example 276, N-{4-[4-oxo-3-(phenylamino)-4,5,6,7-tetrahydro-1H-indol-2-yl]pyridin-2-yl}-1,2-thiazole-3-carboxamide]: 7.74; `O=C(Nc1cc(-c2[nH]c3c(c2Nc2ccccc2)C(=O)CCC3)ccn1)c1cocn1` [Example 278, N-{4-[4-oxo-3-(phenylamino)-4,5,6,7-tetrahydro-1H-indol-2-yl]pyridin-2-yl}-1,3-oxazole-4-carboxamide]: 7.90; `O=C(Nc1cc(-c2[nH]c3c(c2Nc2ccccc2)C(=O)CCC3)ccn1)c1cccnc1` [Example 279, N-{4-[4-oxo-3-(phenylamino)-4,5,6,7-tetrahydro-1H-indol-2-yl]pyridin-2-yl}pyridine-3-carboxamide]: 7.90.
Take `O=C(Nc1cc(-c2[nH]c3c(c2Nc2ccccc2)C(=O)CCC3)ccn1)c1ccns1` [Example 280, N-{4-[4-oxo-3-(phenylamino)-4,5,6,7-tetrahydro-1H-indol-2-yl]pyridin-2-yl}-1,2-thiazole-5-carboxamide]: the pIC50 is 7.99.
As to `O=C(Nc1cc(-c2[nH]c3c(c2Nc2ccccc2)C(=O)CCC3)ccn1)c1cnn[nH]1` [Example 281, N-{4-[4-oxo-3-(phenylamino)-4,5,6,7-tetrahydro-1H-indol-2-yl]pyridin-2-yl}-1H-1,2,3-triazole-5-carboxamide], the pIC50 is 7.95.
As to `O=C(Nc1cc(-c2[nH]c3c(c2Nc2ccccc2)C(=O)CCC3)ccn1)c1cnco1` [Example 282, N-{4-[4-oxo-3-(phenylamino)-4,5,6,7-tetrahydro-1H-indol-2-yl]pyridin-2-yl}-1,3-oxazole-5-carboxamide], the pIC50 was 8.01.
For `O=C(Nc1cc(-c2[nH]c3c(c2Nc2ccccc2)C(=O)CCC3)ccn1)c1nnn[nH]1` [Example 283, N-{4-[4-oxo-3-(phenylamino)-4,5,6,7-tetrahydro-1H-indol-2-yl]pyridin-2-yl}-1H-tetrazole-5-carboxamide], the pIC50 is 7.72.
As to `O=C(Cc1ccc[nH]1)Nc1cc(-c2[nH]c3c(c2Nc2ccccc2)C(=O)CCC3)ccn1` [Example 284, N-{4-[4-oxo-3-(phenylamino)-4,5,6,7-tetrahydro-1H-indol-2-yl]pyridin-2-yl}-2-(1H-pyrrol-2-yl)acetamide], the pIC50 was 7.86.
With `O=C(Cc1nccs1)Nc1cc(-c2[nH]c3c(c2Nc2ccccc2)C(=O)CCC3)ccn1` [Example 285, N-{4-[4-oxo-3-(phenylamino)-4,5,6,7-tetrahydro-1H-indol-2-yl]pyridin-2-yl}-2-(1,3-thiazol-2-yl)acetamide], the pIC50 was 7.51.
Take `O=C(Cc1cc[nH]c1)Nc1cc(-c2[nH]c3c(c2Nc2ccccc2)C(=O)CCC3)ccn1` [Example 286, N-{4-[4-oxo-3-(phenylamino)-4,5,6,7-tetrahydro-1H-indol-2-yl]pyridin-2-yl}-2-(1H-pyrrol-3-yl)acetamide]: the pIC50 is 7.67.
On to `O=C(Cc1cscn1)Nc1cc(-c2[nH]c3c(c2Nc2ccccc2)C(=O)CCC3)ccn1` [Example 287, N-{4-[4-oxo-3-(phenylamino)-4,5,6,7-tetrahydro-1H-indol-2-yl]pyridin-2-yl}-2-(1,3-thiazol-4-yl)acetamide], for which the negative-log IC50 (pIC50) was 7.32.
The same measure for `O=C(Cc1ccco1)Nc1cc(-c2[nH]c3c(c2Nc2ccccc2)C(=O)CCC3)ccn1` [Example 288, 2-(furan-2-yl)-N-{4-[4-oxo-3-(phenylamino)-4,5,6,7-tetrahydro-1H-indol-2-yl]pyridin-2-yl}acetamide]: 7.78.
